This test addresses T1, FXR (Homo sapiens, UniProt Q96RI1).
T1 construct: 5 μL of 20 nM FXR-LBD Complete Coregulator buffer G; purchased ThermoFisher PV4833
T1 sequence (Q96RI1 262-486 limits assumed): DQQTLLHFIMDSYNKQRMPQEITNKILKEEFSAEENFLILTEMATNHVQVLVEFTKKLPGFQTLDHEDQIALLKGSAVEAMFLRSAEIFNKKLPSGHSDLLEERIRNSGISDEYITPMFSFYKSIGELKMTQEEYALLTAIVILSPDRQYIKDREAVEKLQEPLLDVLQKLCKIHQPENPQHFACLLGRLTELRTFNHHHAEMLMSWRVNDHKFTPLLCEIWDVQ
Briefly: FXR antagonist screening by TR-FRET (LanthaScreen TR-FRET FXR co-activation assay kit). Format: biochemical. The note with it: Table 1.2, FXR antagonistic activity; TR-FRET with CDCA; geometric means of at least two independent runs. Put shortly:
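FXR-LBD (20 nM working solution) mixed with compound, CDCA (200 μM working solution) as agonist, Fluorescein-SRC2-2 and Tb-anti-GST antibody in Coregulator buffer G; 10 h at room temperature. Coactivator recruitment read by TR-FRET, triplicate wells.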
In general terms: TR-FRET usually uses a lanthanide donor and a delayed reading to cut background.

This is an account of results in patent publication US20240239775A1, “FXR REGULATOR, PREPARATION METHOD THEREFOR, PHARMACEUTICAL COMPOSITION THEREOF AND USE THEREOF” (QINGDAO RUIJI MEDICAL TECHNOLOGY CO., LTD., priority 2021, published 2024).

Each structure is given as a SMILES string.

In general, IC50 refers to the concentration that gives 50% inhibition.

For the compound `CCOC(=O)c1oc2ccc(S(=O)(=O)N(CCc3ccccc3)c3ccccc3N3CCN(C(=O)c4ccc(Cl)s4)CC3)cc2c1C` [Example M10-128, Ethyl 5-(N-(2-(4-(5-chlorothiophene-2-carbonyl)piperazin-1-yl)phenyl)-N-phenethylsulfamoyl)-3-methylbenzofuran-2-carboxylate], the IC50 was 50 to 100 µM.
The value for `CCOC(=O)c1oc2ccc(S(=O)(=O)N(CCc3ccccc3)c3ccccc3N3CCN(C(=O)c4cncs4)CC3)cc2c1C` [Example M10-129, Ethyl 3-methyl-5-(N-phenethyl-N-(2-(4-(thiazole-5-carbonyl)piperazin-1-yl)phenyl)sulfamoyl)benzofuran-2-carboxylate] was 50 to 100 µM; that for `CCOC(=O)c1oc2ccc(S(=O)(=O)N(CCc3ccccc3)c3ccccc3N3CCN(C(=O)c4cc[nH]n4)CC3)cc2c1C` [Example M10-130, Ethyl 5-(N-(2-(4-(1H-pyrazole-3-carbonyl)piperazin-1-yl)phenyl)-N-phenethylsulfamoyl)-3-methylbenzofuran-2-carboxylate] was 50 to 100 µM; that for `CCOC(=O)c1oc2ccc(S(=O)(=O)N(CCc3ccccc3)c3ccccc3N3CCN(C(=O)c4cnco4)CC3)cc2c1C` [Example M10-131, Ethyl 3-methyl-5-(N-(2-(4-(oxazole-5-carbonyl)piperazin-1-yl)phenyl)-N-phenethylsulfamoyl)benzofuran-2-carboxylate] was 50 to 100 µM.
The value for `CCOC(=O)c1oc2ccc(S(=O)(=O)N(CCc3ccccc3)c3ccccc3N3CCN(C(=O)c4ccc(C)c(C)c4)CC3)cc2c1C` [Example M10-132, Ethyl 5-(N-(2-(4-(3,4-Dimethylbenzoyl)piperazin-1-yl)phenyl)-N-phenethylsulfamoyl) 3-methylbenzofuran-2-carboxylate] was 50 to 100 µM; that for `CCOC(=O)c1oc2ccc(S(=O)(=O)N(CCc3ccccc3)c3ccccc3N3CCN(C(=O)c4c(OC)cccc4OC)CC3)cc2c1C` [Example M10-133, Ethyl 5-(N-(2-(4-(2,6-Dimethoxybenzoyl)piperazin-1-yl)phenyl)-N-phenethylsulfamoyl)3-methylbenzofuran-2-carboxylate] was 50 to 100 µM.
In turn, `CCOC(=O)c1oc2ccc(S(=O)(=O)N(CCc3ccccc3)c3ccccc3N3CCN(C(=O)c4ccccc4Cc4ccccc4)CC3)cc2c1C` [Example M10-134, Ethyl 5-(N-(2-(4-(2-benzylbenzoyl)piperazin-1-yl)phenyl)-N-phenethylsulfamoyl)3-methylbenzofuran-2-carboxylate] registered an IC50 of 50 to 100 µM.
Turning to `CCOC(=O)c1oc2ccc(S(=O)(=O)N(CCc3ccccc3)c3ccccc3N3CCN(C(=O)c4c(C)cc(C)cc4C)CC3)cc2c1C` [Example M10-135, Ethyl 5-(N-(2-(4-(2,4,6-trimethylbenzoyl)piperazin-1-yl)phenyl)-N-phenethylsulfamoyl)3-methylbenzofuran-2-carboxylate], the IC50 was in the range of 50 to 100 µM.
The value for `CCOC(=O)c1oc2ccc(S(=O)(=O)N(CCc3ccccc3)c3ccccc3N3CCN(C(=O)c4ccccc4OC)CC3)cc2c1C` [Example M10-136, Ethyl 5-(N-(2-(4-(2-methoxybenzoyl)piperazin-1-yl)phenyl)-N-phenethylsulfamoyl)3-methylbenzo furan-2-carboxylate] was 50 to 100 µM; that for `CCOC(=O)c1oc2ccc(S(=O)(=O)N(CCc3ccccc3)c3ccccc3N3CCN(C(=O)c4cc(C)ccc4C)CC3)cc2c1C` [Example M10-137, Ethyl 5-(N-(2-(4-(2,5-Dimethylbenzoyl)piperazin-1-yl)phenyl)-N-phenethylsulfamoyl)3-methylbenzofuran-2-carboxylate] was 50 to 100 µM.
Under `CCOC(=O)c1oc2ccc(S(=O)(=O)N(CCc3ccccc3)c3ccccc3N3CCN(C(=O)c4ccc(C#Cc5ccccc5)cc4)CC3)cc2c1C` [Example M10-138, Ethyl 5-(N-(2-(4-(4-(phenylethynyl)benzoyl)piperazin-1-yl)phenyl)-N-phenethylsulfamoyl)3-methylbenzofuran-2-carboxylate] stands 50 to 100 µM; under `CCOC(=O)c1oc2ccc(S(=O)(=O)N(CCc3ccccc3)c3ccccc3N3CCN(C(=O)c4ccc(C)s4)CC3)cc2c1C` [Example M10-139, Ethyl 5-(N-(2-(4-(5-methylthiophene-2-formyl)piperazin-1-yl)phenyl)-N-phenethylsulfamoyl)3-methylbenzofuran-2-carboxylate], 50 to 100 µM.
Turning to `CCOC(=O)c1oc2ccc(S(=O)(=O)N(CCc3ccccc3)c3ccccc3N3CCN(C(=O)c4cc(C)cs4)CC3)cc2c1C` [Example M10-140, Ethyl 5-(N-(2-(4-(4-methylthiophene-2-formyl)piperazin-1-yl)phenyl)-N-phenethylsulfamoyl)3-methylbenzofuran-2-carboxylate], the IC50 is 50 to 100 µM.
As to `CCOC(=O)c1oc2ccc(S(=O)(=O)N(CCc3ccccc3)c3ccccc3N3CCN(C(=O)c4sccc4C)CC3)cc2c1C` [Example M10-141, Ethyl 5-(N-(2-(4-(3-methylthiophene-2-formyl)piperazin-1-yl)phenyl)-N-phenethylsulfamoyl)3-methylbenzofuran-2-carboxylate], the IC50 lay in the range of 50 to 100 µM.
Under `CCOC(=O)c1oc2ccc(S(=O)(=O)N(CCc3ccccc3)c3ccccc3N3CCN(C(=O)c4ncc[nH]4)CC3)cc2c1C` [Example M10-142, Ethyl 5-(N-(2-(4-(1H-imidazole-2-formyl)piperazin-1-yl)phenyl)-N-phenethylsulfamoyl)3-methylbenzofuran-2-carboxylate] stands 50 to 100 µM; under `CCOC(=O)c1oc2ccc(S(=O)(=O)N(CCc3ccccc3)c3ccccc3N3CCN(C(=O)C4CCCS4)CC3)cc2c1C` (centres unmarked) [Example M10-143, Ethyl 5-(N-(2-(4-(tetrahydrothiophene-2-formyl)piperazin-1-yl)phenyl)-N-phenethylsulfamoyl)3-methylbenzofuran-2-carboxylate], 50 to 100 µM; under `CCOC(=O)c1oc2ccc(S(=O)(=O)N(CCc3ccccc3)c3ccccc3N3CCN(C(=O)c4c[nH]cn4)CC3)cc2c1C` [Example M10-144, Ethyl 5-(N-(2-(4-(1H-imidazole-4-carbonyl)piperazin-1-yl)phenyl)-N-phenethylsulfamoyl)3-methylbenzofuran-2-carboxylate], 50 to 100 µM.
The value for `CCOC(=O)c1oc2ccc(S(=O)(=O)N(CCc3ccccc3)c3ccccc3N3CCN(C(=O)C(CC)CC)CC3)cc2c1C` [Example M10-145, Ethyl 5-(N-(2-(4-(2-ethylbutyryl)piperazin-1-yl)phenyl)-N-phenethylsulfamoyl)3-methylbenzofuran-2-carboxylate] was 50 to 100 µM.
Under `CCOC(=O)c1oc2ccc(S(=O)(=O)N(CCc3ccccc3)c3ccccc3N3CCN(C(=O)c4ccno4)CC3)cc2c1C` [Example M10-146, Ethyl 5-(N-(2-(4-(isoxazole-5-carbonyl)piperazin-1-yl)phenyl)-N-phenethylsulfamoyl)3-methylbenzofuran-2-carboxylate] stands 50 to 100 µM; under `CCOC(=O)c1oc2ccc(S(=O)(=O)N(CCc3ccccc3)c3ccccc3N3CCC(NC(=O)c4sccc4Br)CC3)cc2c1C` [Example M10-147, ethyl 5-(N-(2-(4-(3-bromothiophene-2-carboxamido)piperidin-1-yl)phenyl)-N-phenethylsulfamoyl)-3-methylbenzofuran-2-carboxylate], 50 to 100 µM.
